# Assays:
# Details in all cases: 72 h
# [1] = system: U2OS; assay: drug sensitivity score (DSS) for viability; higher = more toxic; extreme values may be limits of the assay
# [2] = system: Vero E6; assay: as above
# [3] = system: Caco-2; assay: as above
# [4] = system: Calu-3; assay: as above
# [5] = system: HepG2; assay: as above
# [6] = system: U2OS; assay: cell viability relative to DMSO; higher = less toxic
# [7] = system: Vero E6; assay: as above
# [8] = system: Caco-2; assay: as above
# [9] = system: Calu-3; assay: as above
# [10] = system: HepG2; assay: as above
# [11] = system: U2OS; assay: relative viability EC50 (midpoint between 100% and the lowest measured viability); higher = less toxic
# [12] = system: Vero E6; assay: as above
# [13] = system: Caco-2; assay: as above
# [14] = system: Calu-3; assay: as above
# [15] = system: HepG2; assay: as above
Structure (SMILES),drug sensitivity score [1],drug sensitivity score [2],drug sensitivity score [3],drug sensitivity score [4],drug sensitivity score [5],cell viability ([6]; 1 nM),cell viability ([6]; 10 nM),cell viability ([6]; 100 nM),cell viability ([6]; 1000 nM),cell viability ([6]; 10000 nM),cell viability ([7]; 1 nM),cell viability ([7]; 10 nM),cell viability ([7]; 100 nM),cell viability ([7]; 1000 nM),cell viability ([7]; 10000 nM),cell viability ([8]; 1 nM),cell viability ([8]; 10 nM),cell viability ([8]; 100 nM),cell viability ([8]; 1000 nM),cell viability ([8]; 10000 nM),cell viability ([9]; 1 nM),cell viability ([9]; 10 nM),cell viability ([9]; 100 nM),cell viability ([9]; 1000 nM),cell viability ([9]; 10000 nM),cell viability ([10]; 1 nM),cell viability ([10]; 10 nM),cell viability ([10]; 100 nM),cell viability ([10]; 1000 nM),cell viability ([10]; 10000 nM),relative viability EC50 [11],relative viability EC50 [12],relative viability EC50 [13],relative viability EC50 [14],relative viability EC50 [15]
CC(=O)Nc1cccc2c1c(Sc1ccc(Cl)cc1)c(C)n2CC(=O)O [AZD1981],0,0,0,0,0,94.6%,102%,94.3%,101%,97.6%,98.6%,98.1%,97.4%,97.4%,94.4%,102%,105%,91.6%,102%,103%,102%,96%,89.7%,94.3%,96.2%,100%,103%,105%,99.8%,97.9%,> 10 µM,> 10 µM,> 10 µM,> 10 µM,> 10 µM
C[C@@H]1Cc2c([nH]c3ccccc23)[C@@H](c2c(F)cc(/C=C/C(=O)O)cc2F)N1CC(C)(C)F [AZD9496],0,0,0,0,0,98.8%,100%,99%,102%,98.9%,102%,100%,104%,101%,91.7%,94.2%,104%,99.6%,94.7%,93.5%,97.1%,91.7%,90.8%,93.6%,105%,103%,90%,104%,98.8%,97.5%,> 10 µM,> 10 µM,> 10 µM,> 10 µM,> 10 µM
CCOC(=O)c1c[nH]cn1 [C-751],0,0,0,0,0,100%,100%,94.6%,102%,93%,99.5%,96.7%,99.6%,92.6%,100%,88.6%,91.6%,96.4%,98.3%,90.4%,100%,97.2%,90.3%,92.9%,104%,104%,99.6%,95.6%,93.1%,109%,> 10 µM,> 10 µM,> 10 µM,> 10 µM,> 10 µM
CCN1C(=O)CNc2ncc(-c3ccc(-c4nc[nH]n4)nc3C)nc21 [CC-115],10.5,8.7,12.7,12.8,9.3,100%,102%,99.6%,59.4%,6.6%,108%,103%,103%,64.4%,24.8%,94.7%,96.4%,89.2%,39.8%,20.5%,106%,92%,91.9%,37.3%,21.6%,108%,102%,105%,57.2%,25.1%,1.11 µM,1.04 µM,0.411 µM,0.4 µM,0.894 µM

# Source: the supplement of paper PMC13380429
